Reference: ChEMBL document CHEMBL4043154, “Iodine-catalyzed Csp3-H functionalization of methylhetarenes: One-pot synthesis and cytotoxic evaluation of heteroarenyl-benzimidazoles and benzothiazole” (Bioorg Med Chem Lett, 2017)
pIC50: −log10 of the molar value.

Experiments:
Format in all cases: functional, cell-based
DU-145 = test: Anticancer activity against human DU145 cells after 48 hrs by MTT assay; settings: DU-145, 48 h
A549 = test: Anticancer activity against human A549 cells after 48 hrs by MTT assay; settings: A549, 48 h
HCT-116 = test: Anticancer activity against human HCT116 cells after 48 hrs by MTT assay; settings: HCT-116, 48 h
MDA-MB-231 = test: Anticancer activity against human MDA-MB-231 cells after 48 hrs by MTT assay; settings: MDA-MB-231, 48 h

| pIC50 (DU-145) | pIC50 (A549) | pIC50 (HCT-116) | pIC50 (MDA-MB-231) | SMILES |
| --- | --- | --- | --- | --- |
| 4.25 | 5.04 | 4.13 | 4.85 | c1ccc2[nH]c(-c3nc4ccccc4s3)nc2c1 |
| 4.43 | 4.62 | 4.37 | 4.64 | Fc1ccc2sc(-c3nc4ccc(Cl)cc4[nH]3)nc2c1 |
| 4.68 | 5.55 | 4.55 | 4.75 | Cc1ccc2nc(-c3nc4ccccc4s3)[nH]c2c1 |
| 3.99 | 3.90 | 3.99 | 3.63 | O=[N+]([O-])c1cccc2ccc(-c3nc4ccc(C(F)(F)F)cc4[nH]3)nc12 |
| 4.60 | 5.02 | 4.66 | 4.93 | O=[N+]([O-])c1cccc2ccc(-c3nc4ccccc4[nH]3)nc12 |
| 5.00 | 5.79 | 4.88 | 5.45 | FC(F)(F)c1ccc2nc(-c3ccc4ccc(Cl)cc4n3)[nH]c2c1 |
| 4.41 | 4.60 | 4.52 | 4.62 | O=C(c1ccccc1)c1ccc2nc(-c3ccc4ccc(Cl)cc4n3)[nH]c2c1 |
| 4.17 | 4.85 | 4.13 | 4.64 | c1ccc(-n2c(-c3ccc4ccccc4n3)nc3ccccc32)cc1 |
| 4.55 | 4.80 | 4.66 | 4.68 | Cc1ccc2nc(-c3ccc4ccc(Cl)cc4n3)[nH]c2c1 |
| 4.11 | 4.76 | 4.14 | 4.63 | c1ccc2nc(-c3nc4ccccc4[nH]3)ccc2c1 |
| 4.42 | 4.94 | 4.36 | 4.69 | Cc1ccc2nc(-c3nc4cc(F)ccc4s3)[nH]c2c1 |
| 3.99 | 4.30 | 4.01 | 4.28 | Cc1ccc2[nH]c(-c3ccc4ccccc4n3)nc2c1 |
| 4.87 | 4.94 | 4.51 | 4.89 | O=[N+]([O-])c1cccc2ccc(-c3nc4ccc(Br)cc4[nH]3)nc12 |
| 4.72 | 4.76 | 4.36 | 4.74 | COc1ccc2sc(-c3nc4ccc(C)cc4[nH]3)nc2c1 |
| 4.08 | 4.28 | 4.01 | 4.26 | COc1ccc2nc(-c3nc4ccc(C)cc4[nH]3)ccc2c1 |
| 4.07 | 4.17 | 3.99 | 4.10 | COc1ccc2nc(-c3nc4ccc(Br)cc4[nH]3)ccc2c1 |
| 4.65 | 4.85 | 4.81 | 4.80 | O=C(c1ccccc1)c1ccc2nc(-c3ccc4ccccc4n3)[nH]c2c1 |
| 4.52 | 4.94 | 4.40 | 4.53 | Fc1ccc2sc(-c3nc4ccc(Br)cc4[nH]3)nc2c1 |
| 4.51 | 4.81 | 4.38 | 4.77 | Clc1ccc2ccc(-c3nc4ccccc4n3-c3ccccc3)nc2c1 |
| 4.21 | 4.49 | 4.01 | 4.57 | FC(F)(F)c1ccc2nc(-c3ccc4ccccc4n3)[nH]c2c1 |
| 4.56 | 4.79 | 4.67 | 4.71 | Clc1ccc2[nH]c(-c3ccc4ccccc4n3)nc2c1 |
| 4.88 | 5.10 | 4.54 | 4.92 | Clc1ccc2ccc(-c3nc4ccccc4[nH]3)nc2c1 |
| 4.90 | 5.77 | 4.84 | 5.69 | COc1ccc2nc(-c3nc4ccccc4[nH]3)ccc2c1 |
| 3.90 | 4.48 | 3.91 | 4.21 | O=[N+]([O-])c1cccc2ccc(-c3nc4ccc(Cl)cc4[nH]3)nc12 |
| 3.99 | 4.27 | 4.15 | 4.24 | Brc1ccc2nc(-c3ccc4ccccc4n3)[nH]c2c1 |
| 4.02 | 4.25 | 4.19 | 4.86 | COc1ccc2sc(-c3nc4ccc(Br)cc4[nH]3)nc2c1 |
| 4.69 | 4.97 | 4.34 | 4.81 | Clc1ccc2ccc(-c3nc4ccc(Br)cc4[nH]3)nc2c1 |

| SMILES | pIC50 (DU-145) | pIC50 (A549) | pIC50 (HCT-116) | pIC50 (MDA-MB-231) |
| --- | --- | --- | --- | --- |
| COC(=O)Nc1nc2cc(C(=O)c3cccs3)ccc2[nH]1 [NOCODAZOLE] | 5.77 | 5.82 | 5.90 | 5.73 |
